Here are results for three molecules from patent US9623023B2, “Class of non-stimulant treatment and ADHD and related disorders” (The Florida State University Research Foundation, …, priority 2012, dated 2017).

Entries after “also recorded” stand apart in the source; their conditions may differ.

Data set [1] concerns PNE mice. The data set can be described thus: Locomotor activity (hyperactivity) in prenatal nicotine exposure (PNE) mouse model. In kind it is in vivo. The settings on record: oral.
Data set [2] deals with PNE mice. The following applies: active phase (lights off), Zhu 2012; cited from earlier work.
Data set [3] deals with PFC dopamine turnover. The following applies: PNE mice; MPH administration; Zhu 2012; cited from earlier work.
Data set [4] has as its system hyperactivity in children. The following applies: oral, dose range 0.5-2 mg/kg; previous reports; cited from earlier work.
The conditions of data set [5]: long-term usage; Recant 1980; cited from earlier work.
The test system of data set [6] is SHR rats. The data set can be described thus: Locomotor activity (hyperactivity) in spontaneously hypertensive rat (SHR) ADHD model. In kind it is in vivo. How it is done: (§1) Spontaneously hypertensive rat (SHR) as an ADHD model. The SHR is a spontaneously occurring mutation associated with hypertension. […] Thus, both the SHR and the PNE mouse model show hyperactivity and increased frontal cortical KOPR activity. The selective KOPR antagonist, nor-BNI (10 mg/kg, i.p.) or the saline vehicle were administered to 60-day old SHR and WKY control rats (Sagvolden et al., 2009 (Reference 56)) at 17:00 hr and locomotor activity measured at hourly intervals over the next 19 hr (FIGS. 4 and 5). […] Since the hyperactivity in the SHR rat was evident during the lights off period from 19:00 hr to 7:00 hr, activity was compared during the lights off period between SHR rats receiving nor-BNI and those receiving saline.
The long-lasting effects of nor-BNI in the SHR is consistent with previous reports that the desensitization of the KOPR produced by nor-BNI lasts for up to 21 days (Metcalf and Coop, 2005 (Reference 43); Patkar et al., 2013 (Reference 48)).

Data set [7] relates to WKY control rats. Briefly: Locomotor activity in WKY control rats. In kind it is in vivo, rat. The following applies: 10 mg/kg i.p. As for the experimental part: as §1
The subject of data set [8] is KOPR. The settings on record: previous reports (Metcalf and Coop 2005; Patkar 2013); cited from earlier work.

With `COC(=O)C(c1ccccc1)C1CCCCN1` (stereo not drawn) [MPH, methylphenidate], in data set [1] (PNE mice, MPH 0.75 mg/kg, FIG. 2 graph 204), the locomotor activity entry is on record as “significantly decreased locomotor activity”. Moreover, the “locomotor activity after single oral administration” value in data set [2] was “reduces the activity to the levels seen in drug naïve control mice”. Besides, the PFC dopamine turnover result in data set [3] was “increases PFC dopamine turnover”.
Regarding `O=C1CC[C@@]2(O)[C@H]3Cc4ccc(O)c5c4[C@@]2(CCN3CC2CC2)[C@H]1O5` [naltrexone], the “locomotor activity compared to vehicle” value in data set [1] (P60 male PNE mice, naltrexone 1 mg/kg, at 19:00 hrs, FIG. 2 graph 202) is “significantly reduces locomotor activity; also recorded: reduces hyperactivity in PNE mice in a manner comparable to that of methylphenidate”. For the same molecule, the hyperactivity in children result in data set [4] is recorded as “effective in reducing hyperactivity”. For the same molecule, the weight gain result in data set [5] is “reduced weight gain”.
Consider `Oc1ccc2c3c1O[C@H]1c4[nH]c5c(c4C[C@@]4(O)[C@@H](C2)N(CC2CC2)CC[C@]314)C[C@@]1(O)[C@H]2Cc3ccc(O)c4c3[C@@]1(CCN2CC1CC1)[C@H]5O4` [nor-BNI, nor-binaltorphimine], for which the “locomotor activity during lights off period (Mean±SEM beam breaks)” value is recorded as 2743.25±945.8 beam breaks in data set [6] (60-day old SHR, 10 mg/kg i.p. at 17:00 hr, lights off 19:00-7:00 hr, saline=4830.75±609.2, p=0.04) and 2494.75±831.6 beam breaks in data set [7] (60-day old WKY control rats, saline=2604.5±608.1, p>0.05). Also, the “effect on locomotor activity compared to saline” value in data set [6] (SHR, 10 mg/kg i.p., FIG. 4) was “reduced the locomotor activity”. Also, the “period over which decrease in hyperactivity was observed” value in data set [6] (SHR, single i.p. injection 10 mg/kg) came to 21 days. In data set [7] (WKY control rats, FIG. 5), the “effect on locomotor activity” value is given as “did not affect locomotor activity”. In data set [8], the “duration of desensitization of the KOPR” value is reported as “up to 21 days”.
